Measured values as given in patent publication US11697648B2, “Fused pyrimidine pyridinone compounds as JAK inhibitors” (THERAVANCE BIOPHARMA R&D IP, LLC, priority 2019, dated 2023).

What was measured:
Tyk2 = Tyk2 (Homo sapiens (Human), UniProt P29597); experiment: Biochemical Tyk2 kinase assay (LanthaScreen)
How it was run: (§1)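 GST-JAK + GFP-STAT1 peptide, HEPES pH 7.5/MgCl2/EGTA/Brij-35 buffer; cpd preincubation 1 h RT; ATP start, 1 h RT; stop with 10 mM EDTA + 2 nM Tb-anti-pSTAT1; TR-FRET 520/495. 4-parameter IC50 → pKi (Cheng-Prusoff).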

JAK1 = JAK1 (Homo sapiens (Human), UniProt P23458); experiment: Biochemical JAK1 kinase assay (LanthaScreen)
JAK1, sequence (P23458 whole entry): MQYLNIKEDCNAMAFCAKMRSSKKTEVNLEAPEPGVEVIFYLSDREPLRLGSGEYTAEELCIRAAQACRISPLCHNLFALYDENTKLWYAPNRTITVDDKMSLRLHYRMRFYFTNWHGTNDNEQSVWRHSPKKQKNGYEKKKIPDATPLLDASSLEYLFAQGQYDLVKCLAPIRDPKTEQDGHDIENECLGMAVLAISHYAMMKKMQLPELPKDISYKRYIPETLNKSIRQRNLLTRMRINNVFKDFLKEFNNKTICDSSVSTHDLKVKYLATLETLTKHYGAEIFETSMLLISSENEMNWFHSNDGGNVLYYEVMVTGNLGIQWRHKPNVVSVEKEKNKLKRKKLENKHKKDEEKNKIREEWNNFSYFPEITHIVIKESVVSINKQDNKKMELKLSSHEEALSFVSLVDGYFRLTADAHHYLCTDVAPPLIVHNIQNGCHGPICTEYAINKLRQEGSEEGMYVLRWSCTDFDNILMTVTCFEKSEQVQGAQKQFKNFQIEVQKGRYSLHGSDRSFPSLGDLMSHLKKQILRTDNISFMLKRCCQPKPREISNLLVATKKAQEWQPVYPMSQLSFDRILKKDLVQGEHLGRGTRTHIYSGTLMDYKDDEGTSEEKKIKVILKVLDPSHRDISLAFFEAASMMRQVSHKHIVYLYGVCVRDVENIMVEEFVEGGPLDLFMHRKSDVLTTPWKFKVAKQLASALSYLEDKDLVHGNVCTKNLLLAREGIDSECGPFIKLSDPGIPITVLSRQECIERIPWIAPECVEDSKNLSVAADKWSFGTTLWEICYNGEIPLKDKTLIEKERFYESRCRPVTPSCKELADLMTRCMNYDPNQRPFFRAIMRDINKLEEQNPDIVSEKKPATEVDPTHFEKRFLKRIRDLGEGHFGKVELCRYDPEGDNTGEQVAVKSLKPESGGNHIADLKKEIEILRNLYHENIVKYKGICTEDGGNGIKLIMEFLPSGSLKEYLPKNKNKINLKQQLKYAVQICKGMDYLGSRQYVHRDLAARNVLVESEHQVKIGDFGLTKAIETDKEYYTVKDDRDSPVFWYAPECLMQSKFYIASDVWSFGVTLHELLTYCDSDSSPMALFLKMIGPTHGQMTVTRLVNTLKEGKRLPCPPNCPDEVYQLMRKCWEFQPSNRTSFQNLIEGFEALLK
How it was run: as §1

[1] = system: IL-2 stimulated STAT5 phosphorylation in Tall-1 human T cell line (JAK3); experiment: Cellular JAK3 potency assay: inhibition of IL-2 stimulated pSTAT5 in Tall-1 T cells; type: cell-based; conditions: IL-2 stimulated pSTAT5, Tall-1 T cells
How it was run: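 Tall-1 cells, 45,000 per well, preincubated 1 hour with compound at 37 °C, then stimulated 30 minutes with IL-2 at 300 ng/ml final. pSTAT5 (Tyr694/699) in lysates quantified by AlphaLISA SureFire Ultra. pIC50 derived from inhibition curves, given as mean with SD.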

Caco-2 cell monolayers = experiment: Caco-2 permeation assay; type: in vitro ADME; conditions: 5 μM, A-B direction, with Verapamil (25 μM)
How it was run: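 Compounds tested at 5 μM in duplicate across Caco-2 monolayers, apical-to-basolateral, with 25 μM verapamil to block P-gp, at 37° C., 5% CO2. Apical and basal samples taken at 0 and 120 min, analysed by LC-MS/MS; Papp (cm/sec) calculated as dQ/(dt×Area×concentration).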

JAK3 = JAK3 (Homo sapiens (Human), UniProt P52333); experiment: Biochemical JAK3 kinase assay (LanthaScreen); conditions: for JAK3 (pKi)-JAK1 (pKi): selectivity JAK3 over JAK1, difference of pKi
JAK3, sequence (P52333 whole entry): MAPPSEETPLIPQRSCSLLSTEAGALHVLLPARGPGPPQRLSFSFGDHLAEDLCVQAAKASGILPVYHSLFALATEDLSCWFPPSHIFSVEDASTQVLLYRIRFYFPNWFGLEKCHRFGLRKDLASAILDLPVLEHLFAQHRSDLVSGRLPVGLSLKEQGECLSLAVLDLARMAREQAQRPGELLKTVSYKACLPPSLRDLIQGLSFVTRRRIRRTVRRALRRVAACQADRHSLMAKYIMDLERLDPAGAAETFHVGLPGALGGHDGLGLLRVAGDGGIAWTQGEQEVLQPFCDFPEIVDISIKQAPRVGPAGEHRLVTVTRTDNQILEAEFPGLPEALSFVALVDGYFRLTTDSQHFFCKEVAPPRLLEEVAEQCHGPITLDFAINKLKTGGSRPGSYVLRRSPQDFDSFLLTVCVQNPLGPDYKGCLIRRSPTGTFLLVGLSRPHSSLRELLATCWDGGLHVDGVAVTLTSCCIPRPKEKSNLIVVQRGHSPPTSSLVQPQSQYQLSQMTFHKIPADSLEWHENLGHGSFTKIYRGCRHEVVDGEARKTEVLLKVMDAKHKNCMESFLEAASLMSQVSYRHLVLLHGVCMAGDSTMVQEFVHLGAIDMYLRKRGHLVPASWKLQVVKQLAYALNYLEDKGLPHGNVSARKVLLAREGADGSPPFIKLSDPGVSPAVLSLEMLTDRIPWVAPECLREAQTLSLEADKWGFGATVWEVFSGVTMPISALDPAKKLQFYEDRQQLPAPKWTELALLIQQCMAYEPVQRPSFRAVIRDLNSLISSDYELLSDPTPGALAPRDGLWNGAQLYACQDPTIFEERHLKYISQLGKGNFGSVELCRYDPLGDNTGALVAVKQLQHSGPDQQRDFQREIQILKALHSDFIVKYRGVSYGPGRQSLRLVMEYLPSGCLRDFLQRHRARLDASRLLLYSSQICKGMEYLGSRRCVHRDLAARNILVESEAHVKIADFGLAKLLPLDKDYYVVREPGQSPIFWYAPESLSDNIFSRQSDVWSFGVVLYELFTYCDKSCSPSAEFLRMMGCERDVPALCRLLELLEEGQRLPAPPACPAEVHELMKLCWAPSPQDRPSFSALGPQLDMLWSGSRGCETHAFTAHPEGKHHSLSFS
How it was run: as §1

JAK2 = JAK2 (Homo sapiens (Human), UniProt O60674); experiment: Biochemical JAK2 kinase assay (LanthaScreen)
JAK2, sequence (O60674 whole entry): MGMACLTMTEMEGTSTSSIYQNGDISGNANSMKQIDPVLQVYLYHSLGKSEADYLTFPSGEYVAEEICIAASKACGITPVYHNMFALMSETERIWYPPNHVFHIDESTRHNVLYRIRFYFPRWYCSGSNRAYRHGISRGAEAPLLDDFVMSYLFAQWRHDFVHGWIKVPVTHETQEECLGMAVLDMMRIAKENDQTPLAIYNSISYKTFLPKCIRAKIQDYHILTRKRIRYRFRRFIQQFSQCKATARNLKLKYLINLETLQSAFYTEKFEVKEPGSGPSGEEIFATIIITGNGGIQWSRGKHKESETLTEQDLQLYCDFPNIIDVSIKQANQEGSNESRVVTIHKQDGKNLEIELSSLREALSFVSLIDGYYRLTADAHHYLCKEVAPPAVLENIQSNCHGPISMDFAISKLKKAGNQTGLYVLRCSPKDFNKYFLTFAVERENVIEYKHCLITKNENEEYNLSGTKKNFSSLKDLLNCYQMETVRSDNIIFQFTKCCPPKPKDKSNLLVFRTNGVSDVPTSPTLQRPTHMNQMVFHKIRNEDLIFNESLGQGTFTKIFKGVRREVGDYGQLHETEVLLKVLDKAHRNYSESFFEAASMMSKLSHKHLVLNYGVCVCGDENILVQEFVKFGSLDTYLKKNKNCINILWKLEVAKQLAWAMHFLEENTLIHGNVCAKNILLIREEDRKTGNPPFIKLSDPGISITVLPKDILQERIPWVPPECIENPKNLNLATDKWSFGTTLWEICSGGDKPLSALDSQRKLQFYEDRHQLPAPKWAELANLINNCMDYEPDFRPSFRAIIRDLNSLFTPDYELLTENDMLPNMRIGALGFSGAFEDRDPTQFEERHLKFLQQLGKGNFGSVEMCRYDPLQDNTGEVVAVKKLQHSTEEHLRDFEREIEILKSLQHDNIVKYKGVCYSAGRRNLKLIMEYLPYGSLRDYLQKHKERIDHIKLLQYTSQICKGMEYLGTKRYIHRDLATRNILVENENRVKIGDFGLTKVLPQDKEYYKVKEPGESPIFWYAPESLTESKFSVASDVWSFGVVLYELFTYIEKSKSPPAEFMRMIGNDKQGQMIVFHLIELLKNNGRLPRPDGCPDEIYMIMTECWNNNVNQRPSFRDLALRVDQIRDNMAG
How it was run: as §1

Tyk2, sequence (P29597 whole entry): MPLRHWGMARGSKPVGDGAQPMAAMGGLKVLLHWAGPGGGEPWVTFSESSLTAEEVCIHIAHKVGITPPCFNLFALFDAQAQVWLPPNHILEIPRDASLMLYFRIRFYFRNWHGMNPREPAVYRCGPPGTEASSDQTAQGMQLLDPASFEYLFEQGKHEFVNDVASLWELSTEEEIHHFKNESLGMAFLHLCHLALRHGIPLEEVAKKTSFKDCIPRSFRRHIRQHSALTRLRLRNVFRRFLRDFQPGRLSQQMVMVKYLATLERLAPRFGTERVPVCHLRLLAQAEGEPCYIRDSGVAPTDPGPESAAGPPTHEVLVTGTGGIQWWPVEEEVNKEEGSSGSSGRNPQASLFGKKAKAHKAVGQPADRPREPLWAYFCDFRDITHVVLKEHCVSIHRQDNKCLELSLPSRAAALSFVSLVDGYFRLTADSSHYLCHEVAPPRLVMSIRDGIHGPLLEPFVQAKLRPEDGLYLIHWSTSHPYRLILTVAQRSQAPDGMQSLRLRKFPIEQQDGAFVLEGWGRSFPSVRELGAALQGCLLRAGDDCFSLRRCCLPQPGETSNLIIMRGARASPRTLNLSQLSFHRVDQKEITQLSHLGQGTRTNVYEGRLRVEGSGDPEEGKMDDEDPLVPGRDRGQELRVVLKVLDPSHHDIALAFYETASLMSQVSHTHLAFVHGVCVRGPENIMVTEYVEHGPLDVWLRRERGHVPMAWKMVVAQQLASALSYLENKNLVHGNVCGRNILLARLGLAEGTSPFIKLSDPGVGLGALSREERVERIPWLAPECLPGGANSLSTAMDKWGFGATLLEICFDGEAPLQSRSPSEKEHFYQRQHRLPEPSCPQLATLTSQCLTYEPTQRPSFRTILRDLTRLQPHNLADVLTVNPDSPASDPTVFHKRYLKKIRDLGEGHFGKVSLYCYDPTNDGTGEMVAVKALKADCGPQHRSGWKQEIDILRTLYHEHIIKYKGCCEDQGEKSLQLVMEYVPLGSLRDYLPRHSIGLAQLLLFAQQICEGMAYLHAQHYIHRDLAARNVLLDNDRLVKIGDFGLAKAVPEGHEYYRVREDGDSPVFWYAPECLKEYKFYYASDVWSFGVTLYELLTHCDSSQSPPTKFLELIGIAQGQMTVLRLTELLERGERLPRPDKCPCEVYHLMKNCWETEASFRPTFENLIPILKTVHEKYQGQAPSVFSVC

C=CC(=O)N1CC(CCn2c(=O)ccc3cnc(Nc4ccc(N5CCN(C(=O)[C@H](C)O)CC5)cc4)nc32)C1 [Example 106]
Tyk 2 (pKi) (Tyk2): E (E represents a pKi value of 7 or below (Ki of 100 nM or above))
JAK 1 (pKi) (JAK1): E (E represents a pKi value of 7 or below (Ki of 100 nM or above))
Tall-1 (pIC50) [1]: B (B represents a pC50 value between 6.7 (included) and 7.5 (IC50 between 200 nM and 32 nM))
Caco Kp (Caco-2 cell monolayers): A (A represents a value below 5×10^−6 cm/sec)
JAK 3 (pKi) (JAK3): A (A represents a pKi value≥10 (Ki≤0.1 nM))
JAK3 (pKi)-JAK1 (pKi) (JAK3): A (A represents a value of 3 or above)
JAK 2 (pKi) (JAK2): E (E represents a pKi value of 7 or below (Ki of 100 nM or above))

C=CC(=O)N1CC(CCn2c(=O)ccc3cnc(Nc4cccc(N5CCN(C(=O)COC)CC5)c4)nc32)C1 [Example 108]
Tyk 2 (pKi) (Tyk2): E (E represents a pKi value of 7 or below (Ki of 100 nM or above))
JAK 1 (pKi) (JAK1): E (E represents a pKi value of 7 or below (Ki of 100 nM or above))
Tall-1 (pIC50) [1]: B (B represents a pC50 value between 6.7 (included) and 7.5 (IC50 between 200 nM and 32 nM))
Caco Kp (Caco-2 cell monolayers): A (A represents a value below 5×10^−6 cm/sec)
JAK 3 (pKi) (JAK3): B (B represents pKi value between 9 and 10 (Ki between 1 nM and 0.1 nM))
JAK3 (pKi)-JAK1 (pKi) (JAK3): A (A represents a value of 3 or above)
JAK 2 (pKi) (JAK2): E (E represents a pKi value of 7 or below (Ki of 100 nM or above))

C=CC(=O)N1CC(CCn2c(=O)ccc3cnc(Nc4ccc(N5CCN(C(=O)C(F)(F)F)CC5)cc4)nc32)C1 [Example 109]
Tyk 2 (pKi) (Tyk2): E (E represents a pKi value of 7 or below (Ki of 100 nM or above))
JAK 1 (pKi) (JAK1): D (D represents a pKi value between 7 and 8 (Ki between 100 nM and 10 nM))
Tall-1 (pIC50) [1]: B (B represents a pC50 value between 6.7 (included) and 7.5 (IC50 between 200 nM and 32 nM))
Caco Kp (Caco-2 cell monolayers): C (C represents a value between 10×10^−6 and 30×10^−6 cm/sec)
JAK 3 (pKi) (JAK3): B (B represents pKi value between 9 and 10 (Ki between 1 nM and 0.1 nM))
JAK3 (pKi)-JAK1 (pKi) (JAK3): B (B represents a value of 2.5 to 3)
JAK 2 (pKi) (JAK2): E (E represents a pKi value of 7 or below (Ki of 100 nM or above))

C=CC(=O)N1CC(CCn2c(=O)ccc3cnc(Nc4ccc(N5CCN(CCOCC)CC5)cc4)nc32)C1 [Example 117]
Tyk 2 (pKi) (Tyk2): E (E represents a pKi value of 7 or below (Ki of 100 nM or above))
JAK 1 (pKi) (JAK1): E (E represents a pKi value of 7 or below (Ki of 100 nM or above))
Tall-1 (pIC50) [1]: A (A represents a pIC50 value≥7.5 (IC50≤32 nM))
Caco Kp (Caco-2 cell monolayers): C (C represents a value between 10×10^−6 and 30×10^−6 cm/sec)
JAK 3 (pKi) (JAK3): A (A represents a pKi value≥10 (Ki≤0.1 nM))
JAK3 (pKi)-JAK1 (pKi) (JAK3): A (A represents a value of 3 or above)
JAK 2 (pKi) (JAK2): E (E represents a pKi value of 7 or below (Ki of 100 nM or above))

C=CC(=O)N1CC(CCn2c(=O)ccc3cnc(Nc4cccc(N5CCN(C(=O)OC)CC5)c4)nc32)C1 [Example 123]
Tyk 2 (pKi) (Tyk2): E (E represents a pKi value of 7 or below (Ki of 100 nM or above))
JAK 1 (pKi) (JAK1): E (E represents a pKi value of 7 or below (Ki of 100 nM or above))
Tall-1 (pIC50) [1]: B (B represents a pC50 value between 6.7 (included) and 7.5 (IC50 between 200 nM and 32 nM))
Caco Kp (Caco-2 cell monolayers): C (C represents a value between 10×10^−6 and 30×10^−6 cm/sec)
JAK 3 (pKi) (JAK3): B (B represents pKi value between 9 and 10 (Ki between 1 nM and 0.1 nM))
JAK3 (pKi)-JAK1 (pKi) (JAK3): A (A represents a value of 3 or above)
JAK 2 (pKi) (JAK2): E (E represents a pKi value of 7 or below (Ki of 100 nM or above))

C=CC(=O)N1CC(CCn2c(=O)ccc3cnc(Nc4cccc(N5CCN(C(=O)N(C)C)CC5)c4)nc32)C1 [Example 124]
Tyk 2 (pKi) (Tyk2): E (E represents a pKi value of 7 or below (Ki of 100 nM or above))
JAK 1 (pKi) (JAK1): E (E represents a pKi value of 7 or below (Ki of 100 nM or above))
Tall-1 (pIC50) [1]: B (B represents a pC50 value between 6.7 (included) and 7.5 (IC50 between 200 nM and 32 nM))
Caco Kp (Caco-2 cell monolayers): B (B represents a value between 5×10^−6 and 10×10^−6 cm/sec)
JAK 3 (pKi) (JAK3): A (A represents a pKi value≥10 (Ki≤0.1 nM))
JAK3 (pKi)-JAK1 (pKi) (JAK3): A (A represents a value of 3 or above)
JAK 2 (pKi) (JAK2): E (E represents a pKi value of 7 or below (Ki of 100 nM or above))

C=CC(=O)N1CC(CCn2c(=O)ccc3cnc(Nc4cccc(CN5CCN(S(=O)(=O)CC#N)CC5)c4)nc32)C1 [Example 125]
Tyk 2 (pKi) (Tyk2): E (E represents a pKi value of 7 or below (Ki of 100 nM or above))
JAK 1 (pKi) (JAK1): E (E represents a pKi value of 7 or below (Ki of 100 nM or above))
Tall-1 (pIC50) [1]: B (B represents a pC50 value between 6.7 (included) and 7.5 (IC50 between 200 nM and 32 nM))
Caco Kp (Caco-2 cell monolayers): B (B represents a value between 5×10^−6 and 10×10^−6 cm/sec)
JAK 3 (pKi) (JAK3): A (A represents a pKi value≥10 (Ki≤0.1 nM))
JAK3 (pKi)-JAK1 (pKi) (JAK3): A (A represents a value of 3 or above)
JAK 2 (pKi) (JAK2): E (E represents a pKi value of 7 or below (Ki of 100 nM or above))

C=CC(=O)N1CC(CCn2c(=O)ccc3cnc(Nc4cccc(N5CCN(S(C)(=O)=O)CC5)c4)nc32)C1 [Example 127]
Tyk 2 (pKi) (Tyk2): E (E represents a pKi value of 7 or below (Ki of 100 nM or above))
JAK 1 (pKi) (JAK1): E (E represents a pKi value of 7 or below (Ki of 100 nM or above))
Tall-1 (pIC50) [1]: B (B represents a pC50 value between 6.7 (included) and 7.5 (IC50 between 200 nM and 32 nM))
Caco Kp (Caco-2 cell monolayers): A (A represents a value below 5×10^−6 cm/sec)
JAK 3 (pKi) (JAK3): A (A represents a pKi value≥10 (Ki≤0.1 nM))
JAK3 (pKi)-JAK1 (pKi) (JAK3): A (A represents a value of 3 or above)
JAK 2 (pKi) (JAK2): E (E represents a pKi value of 7 or below (Ki of 100 nM or above))

C=CC(=O)N1CCN(CCn2c(=O)ccc3cnc(Nc4ccc(N5CCN(S(C)(=O)=O)CC5)cc4)nc32)CC1 [Example 130]
Tyk 2 (pKi) (Tyk2): E (E represents a pKi value of 7 or below (Ki of 100 nM or above))
JAK 1 (pKi) (JAK1): E (E represents a pKi value of 7 or below (Ki of 100 nM or above))
Tall-1 (pIC50) [1]: B (B represents a pC50 value between 6.7 (included) and 7.5 (IC50 between 200 nM and 32 nM))
Caco Kp (Caco-2 cell monolayers): A (A represents a value below 5×10^−6 cm/sec)
JAK 3 (pKi) (JAK3): B (B represents pKi value between 9 and 10 (Ki between 1 nM and 0.1 nM))
JAK3 (pKi)-JAK1 (pKi) (JAK3): A (A represents a value of 3 or above)
JAK 2 (pKi) (JAK2): E (E represents a pKi value of 7 or below (Ki of 100 nM or above))

C=CC(=O)N1CCN(CCn2c(=O)ccc3cnc(Nc4cnn(C)c4)nc32)[C@@H](CO)C1 [Example 131]
Tyk 2 (pKi) (Tyk2): E (E represents a pKi value of 7 or below (Ki of 100 nM or above))
JAK 1 (pKi) (JAK1): E (E represents a pKi value of 7 or below (Ki of 100 nM or above))
Tall-1 (pIC50) [1]: C (C represents a pIC50 value between 6 and 6.7 (IC50 between 1 μM and 200 nM))
Caco Kp (Caco-2 cell monolayers): A (A represents a value below 5×10^−6 cm/sec)
JAK 3 (pKi) (JAK3): B (B represents pKi value between 9 and 10 (Ki between 1 nM and 0.1 nM))
JAK3 (pKi)-JAK1 (pKi) (JAK3): A (A represents a value of 3 or above)
JAK 2 (pKi) (JAK2): E (E represents a pKi value of 7 or below (Ki of 100 nM or above))

C=CC(=O)N1CC(CCn2c(=O)ccc3cnc(Nc4ccc(N5CCN(C)CC5)c(OC)c4)nc32)C1 [Example 135]
Tyk 2 (pKi) (Tyk2): E (E represents a pKi value of 7 or below (Ki of 100 nM or above))
JAK 1 (pKi) (JAK1): E (E represents a pKi value of 7 or below (Ki of 100 nM or above))
Tall-1 (pIC50) [1]: B (B represents a pC50 value between 6.7 (included) and 7.5 (IC50 between 200 nM and 32 nM))
Caco Kp (Caco-2 cell monolayers): A (A represents a value below 5×10^−6 cm/sec)
JAK 3 (pKi) (JAK3): B (B represents pKi value between 9 and 10 (Ki between 1 nM and 0.1 nM))
JAK3 (pKi)-JAK1 (pKi) (JAK3): A (A represents a value of 3 or above)
JAK 2 (pKi) (JAK2): E (E represents a pKi value of 7 or below (Ki of 100 nM or above))
